Results reported in patent publication US20100204277A1, “Compositions and Methods for Controlling Infestation” (HATCHTECH PTY LTD., priority 2007, published 2010).
Read-outs that look alike come from different tables or passages of the source. Non-standard residues stand in square brackets, D forms with d. Residues, ends and D or L forms follow the SMILES beside them. *: point of attachment. Sta = CC(C)C[C@H](N)[C@@H](O)CC(=O)O; Isovaleryl = CC(C)CC(=O)*

Columns and labels:
[1] = tested on: Lice (L) / Plutella (P) eggs; type: in vivo
Description: Log LD50 is obtained from the observed percentage ovicidal activity by conversion using a modified logit transformation. The observed percentage ovicidal activity values were transformed using the equation:
The additional 5% was used to allow a number to be calculated when 0% and 100% activity was observed. The BA is a crude correction to the log of the concentration at which the compounds were tested. Correlation between BA values and LD50 allows the calculation of Log LD50. […] A number of metal chelating agents with potential for inhibiting the remodelling events associated with thin membrane egg hatching in lice were analysed by comparing their percentage ovicidal activity in lice at different concentrations, their logit calculated pLD50, Pref pLD50, Activity class, clogP and molar refractivity were determined.

[2] = tested on: Plutella xylostella eggs (Waite strain); assay: Plutella xylostella egg hatch (egg dip)
Description: Several hundred Plutella xylostella eggs (Waite strain) were collected, that had been laid over a 24 hour period.
The egg masses were then placed in a humid box at 25° C. until egg hatch. Control eggs were exposed to absolute methanol as described above. At day 6 post laying the eggs were assessed from the different treatments and the percentage of egg hatch determined relative to the control as shown in Table 9.
Batches of Plutella eggs that were laid on either fine cloth or parafilm were dipped in a specific inhibitor solution for between 2-10 seconds, the excess solution was drained by blotting with dry tissue paper. The egg masses were then placed in a humid box at 25 degrees until egg hatch. Control eggs were exposed to absolute methanol as described above or not treated. At day 6 post laying the eggs were assessed from the different treatments and the percentage of egg hatch determined relative to the controls as shown in Tables 10 and 11.
The egg masses were then placed in a humid box at 25 degrees until egg hatch. Control eggs were exposed to absolute ethanol as described above. On day 6 post laying the eggs were assessed from the different treatments and the percentage of egg hatch determined relative to the control.

Plutella xylostella eggs = assay: Glass house ovicidal test, Plutella eggs on cabbage plants; type: in vivo; conditions: 10 eggs per plant
From the text: A number of treatments and replicates were set up in the glass house using young cabbage plants that were at the 4-5 leaf stage. Plutella xylostella eggs were laid by gravid females on the leaves such that each plant contained 10 eggs. The plants were sprayed with a commercial ovicide or using the compounds 5,5′-dimethyl-2,2′-dipyridyl and 5,5′ diethyl-2,2′-dipyridyl in a formulation at the rate of 200 L/Ha using a track sprayer. Controls of water only or Placebo only were also included. The ovicidal efficacy was monitored over a number of days an the number of eggs hatching and caterpillar larvae emerging recorded (Table 22).

[3] = tested on: proteases in louse egg shell washings (ESW); assay: Gelatine substrate SDS-PAGE of louse egg shell washings incubated with protease inhibitors; type: biochemical, Pediculus humanus humanus; conditions: gelatine SDS-PAGE strips; EDTA 10 mM, 1,10-phenanthroline 10 mM, PMSF 5 mM, E-64 10 μM, Pepstatin 5 μM; 3 hrs at 37° C.
Description: Within 12 hours of hatching 50 body lice eggs (Pediculus humanus humanus) were removed from the hair and placed in a 1 mL eppendorf tube. 20 μL of distilled water was added to the unhatched eggs and the preparation incubated for 30 minutes at 32° C. The 20 μL was recovered, freeze dried and stored at −70° C. This sample was referred to as sample 1. A number of other samples were also collected as described. Sample 2 was collected by removing the unhatched louse eggs from four hairs that were approximately 3 cm long, cutting the hair into 0.5 cm lengths, and placing them into a microfuge tube containing 20 μl of distilled water and incubating at 32° C. for 30 minutes. Sample 3 was collected as for sample 2, but the hair was placed in a tube containing 10 mL of 1% sodium hypochlorite for 1 minute followed by five 1 minute washes in 25 mL of distilled water to remove the sodium hypochlorite before being incubated in a microfuge tube containing 20 μl of distilled water and incubated as for Sample 2. Sample 4 was collected from unhatched eggs which were removed from the hair and washed with 1% sodium hypochlorite and incubated in 20 μl of distilled water in the same manner as the hair in Sample 3. Finally, Sample 5 was collected from eggs that were within 24 hrs of hatching which were washed with 1% sodium hypochlorite, then returned to the incubator at 32° C. until they hatched, the empty egg shells collected 0-2 hrs after egg-hatching, placed in a 1 mL microfuge tube containing 20 μl of distilled water and incubated as for Samples 1-4. For all samples 1-5 the 20 μl of fluid was recovered, freeze-dried and stored at −70° C. The washings recovered from these freshly hatched egg shells are referred to as egg-shell-washings (ESWs). In order to look for the presence of proteases present in these different samples, the freeze-dried samples were resuspended in 15 μL of non-reducing SDS sample buffer, centrifuged at 10,000 g for 2 minutes and the entire 15 μL loaded on to 10% gelatine substrate SDS-PAGE gels. Gels were run at 4° C. for 10 minutes at 10 mA followed by a further 25 minutes at 15 mA per gel. They were then incubated for 2×20 minutes in a 2.5% Triton-X 100 solution followed by a three hour incubation in 0.1M Tris/HCl containing 1 mM CaCl2 pH 8.0. Activity was detected as clear areas on the gel the result of protease activity degrading the gelatine within the gel.
Protease activity in the ESWs from louse eggs was also examined using two-dimensional gel electrophoresis. It was necessary to collect large numbers of freshly hatched egg shells. Following egglaying onto pieces of cloth, adult female lice were removed and the cloth with the eggs washed with 1% sodium hypochlorite as for collection of ESWs. The eggs were then returned to the incubator and permitted to hatch. Typically 100 to 500 hatched egg shells were collected (0-2 hours post hatching), placed in a microfuge tube containing 200 μl of distilled water, incubated and sample treated as described above. For analysis, ESWs were resuspended in rehydration buffer (8 M Urea, 2% 3-[(3-cholamidopropyl) dimethylammonio]-1-propanesulfonate 2% Immobilised pH gradient buffer 3-10 (Amersham Phamacia Biotech, Uppsala, Sweden)) and used to rehydrate 7 cm Immobiline Dry strips pH 3-10 (Amersham Bioscience) overnight. Strips were transferred to the Multiphor II (Pharmacia, Sweden) apparatus, electrophoresed in the first dimension at 200 V for 1 min, increasing to 3,500 V over the next 90 min followed by 65 min at 3,500 V, equilibrated (6 M urea, 30% glycerol, 50 mM Tris pH 8.8 and 2% SDS) and then run on a 10% SDS-PAGE gel containing 0.1% gelatin for the second dimension. The gel was then run and developed as previously described.
10% SDS-PAGE gelatine substrate gels were loaded with freeze dried egg shell washings from 100 lice eggs that had been resuspended in 50 μL of non-reducing sample buffer with samples run at 10 μL per lane. […]

[4] = 10 mM (200 L/Ha), with wetting agent 0.3 ml/L
[5] = 20 mM (200 L/Ha), with wetting agent 0.3 ml/L

## N[C@@H]1CCCC[C@H]1O (relative stereo) [Trans-2-aminocyclohexanol]
[1]; 10 mM, Lice/Plutella: ND P
  Activity class 0 = inactive 1 = low 2 = med 3 = high: 0 (A pLD50 value less than 2 is considered inactive (Class 0))

## Cc1cc(C)cc(C(=O)CC(=O)c2cc(C)cc(C)c2)c1 [1,3-Bis-(3,5-dimethyl-phenyl)-propane-1,3-dione]
[1]; 10 mM, Lice/Plutella: ND P
  Activity class 0 = inactive 1 = low 2 = med 3 = high: 0 (A pLD50 value less than 2 is considered inactive (Class 0))

## COc1ccc(C(=O)CC(=O)c2ccc(OC)cc2)cc1 [1,3-Bis-(4-methoxy-phenyl)-propane-1,3-dione]
[1]; 10 mM, Lice/Plutella: ND P
  Activity class 0 = inactive 1 = low 2 = med 3 = high: 0 (A pLD50 value less than 2 is considered inactive (Class 0))

## CC(C)(C)c1ccc(C(=O)CC(=O)c2ccc(C(C)(C)C)cc2)cc1 [1,3-Bis-(4-tert-butyl-phenyl)-propane-1,3-dione]
[1]; 10 mM, Lice/Plutella: ND P
  Activity class 0 = inactive 1 = low 2 = med 3 = high: 0 (A pLD50 value less than 2 is considered inactive (Class 0))

## O=C(CC(=O)c1cccnc1)c1cccnc1 [1,3-dipyridin-3-yl-propane-1,3-dione]
[1]; 10 mM, Lice/Plutella: ND P
  Activity class 0 = inactive 1 = low 2 = med 3 = high: 0 (A pLD50 value less than 2 is considered inactive (Class 0))

## COc1ccc(C(=O)CC(=O)c2ccc(C(C)(C)C)cc2)cc1 [1-(4-tert-butylphenyl)-3-(4-methoxyphenyl)-propane-1,3-dione]
[1]; 10 mM, Lice/Plutella: L P
  Activity class 0 = inactive 1 = low 2 = med 3 = high: 0 (A pLD50 value less than 2 is considered inactive (Class 0))

## c1ccc2nc(-c3ccc4ccccc4n3)ccc2c1 [2,2′-biquinoline]
[1]; 10 mM, Lice/Plutella: L P
  Activity class 0 = inactive 1 = low 2 = med 3 = high: 0 (A pLD50 value less than 2 is considered inactive (Class 0))

## c1ccc(-c2ccc3ccccc3n2)nc1 [2-(2-pyridinyl)quinoline]
[1]; 10 mM, Lice/Plutella: P
  Activity class 0 = inactive 1 = low 2 = med 3 = high: 1 (a pLD50 value between 2 and 3 is considered weakly active (Class 1))
[2]; 10 mM, Example 18, eggs on fine cloth dipped approximately 2 seconds, day 6 post laying
  % Inhibition of egg hatch relative to control: able to inhibit

## CC(=O)C1CCCCC1=O (stereo not shown) [2-Acetylcyclohexanone]
[1]; 10 mM, Lice/Plutella: ND P
  Activity class 0 = inactive 1 = low 2 = med 3 = high: 0 (A pLD50 value less than 2 is considered inactive (Class 0))

## c1ccc(Cc2ccccn2)cc1 [2-benzyl-pyridine]
[1]; 10 mM, Lice/Plutella: L P
  Activity class 0 = inactive 1 = low 2 = med 3 = high: 0 (A pLD50 value less than 2 is considered inactive (Class 0))

## O=C(CC(=O)C(F)(F)F)c1ccccc1 [4,4,4-Trifluoro-1-phenyl-butane-1,3-dione]
[1]; 10 mM, Lice/Plutella: L P
  Activity class 0 = inactive 1 = low 2 = med 3 = high: 0 (A pLD50 value less than 2 is considered inactive (Class 0))

## Cc1ccnc(-c2cc(C)ccn2)c1 [4,4′-dimethyl-2,2′-dipyridyl]
[2]; 10 and 1 mM, cloth or parafilm
  egg hatching of Plutella eggs (Tables 10 and 11): significantly inhibit

## c1cnc2ccc3ncccc3c2c1 [4,7-phenanthroline]
[1]; 10 mM, Lice/Plutella: L P
  Activity class 0 = inactive 1 = low 2 = med 3 = high: 0 (A pLD50 value less than 2 is considered inactive (Class 0))

## c1ccc(-c2cc(N3CCOCC3)c3ccccc3n2)nc1 [4-Morpholin-4-yl-2-pyridin-2-yl-quinoline]
[1]; 10 mM, Lice/Plutella: L P
  Activity class 0 = inactive 1 = low 2 = med 3 = high: 0 (A pLD50 value less than 2 is considered inactive (Class 0))

## CCc1ccc(-c2ccc(CC)cn2)nc1 [5,5′diethyl-2,2′-dipyridyl]
Plutella xylostella eggs; 10 mM (200 L/Ha), No Wetting Agent
  # LARVAE EMERGED 0-24 h: 0
Plutella xylostella eggs; [4]
  # LARVAE EMERGED 0-24 h: 0

## Cc1ccc(-c2ccc(C)cn2)nc1 [5,5′dimethyl-2,2′-dipyridyl]
Plutella xylostella eggs; [4]
  # LARVAE EMERGED 0-24 h: 0
  # LARVAE EMERGED 24-48 h: 0
Plutella xylostella eggs; [5]
  # LARVAE EMERGED 0-24 h: 0
  # LARVAE EMERGED 24-48 h: 0
Plutella xylostella eggs; 20 mM (200 L/Ha), with wetting agent 0.3 ml/L, 48-72 h
  # LARVAE EMERGED 48-72 h: 0

## CC(=O)NO [Acetohydroxamic acid]
[1]; 10 mM, Lice/Plutella: ND P
  Activity class 0 = inactive 1 = low 2 = med 3 = high: 0 (A pLD50 value less than 2 is considered inactive (Class 0))

## CC(=O)CC(=O)c1ccccc1 [Benzoylacetone]
[1]; 1 mM, Lice/Plutella: ND P
  Activity class 0 = inactive 1 = low 2 = med 3 = high: 0 (A pLD50 value less than 2 is considered inactive (Class 0))
[1]; 10 mM, Lice/Plutella: ND P
  Activity class 0 = inactive 1 = low 2 = med 3 = high: 1 (a pLD50 value between 2 and 3 is considered weakly active (Class 1))

## O=C(CC(=O)c1ccccc1)c1ccccc1 [Dibenzoyl methane]
[1]; 10 mM, Lice/Plutella: P
  Activity class 0 = inactive 1 = low 2 = med 3 = high: 1 (a pLD50 value between 2 and 3 is considered weakly active (Class 1))

## CC(C)C[C@H](NC(=O)[C@H]1O[C@@H]1C(=O)O)C(=O)NCCCCN=C(N)N [E-64]
[3]
  protease activity of egg shell washings compared to untreated controls: no apparent reduction in protease activity

## O=C(O)CN(CCN(CC(=O)O)CC(=O)O)CC(=O)O [EDTA, ethylenediamine tetraacetic acid]
[3]
  protease activity of egg shell washings compared to untreated controls: reduction in protease activity

## COC(=O)CN [Glycine methyl ester]
[1]; 10 mM, Lice/Plutella: ND P
  Activity class 0 = inactive 1 = low 2 = med 3 = high: 0 (A pLD50 value less than 2 is considered inactive (Class 0))

## O=S(=O)(F)Cc1ccccc1 [PMSF]
[3]
  protease activity of egg shell washings compared to untreated controls: no apparent reduction in protease activity

## CC(C)CC(=O)N[C@H](C(=O)N[C@H](C(=O)N[C@@H](CC(C)C)[C@@H](O)CC(=O)N[C@@H](C)C(=O)N[C@@H](CC(C)C)[C@@H](O)CC(=O)O)C(C)C)C(C)C [pepstatin] (Isovaleryl-VV[Sta]A[Sta]-OH)
[3]
  protease activity of egg shell washings compared to untreated controls: no apparent reduction in protease activity
